Measurements: patent US20150196533A1, “METHOD FOR CONCURRENT TREATMENT OF PAIN AND DEPRESSION” (The General Hospital Corporation, priority 2012, published 2015)
“Also recorded” adds a separate entry of the source.

Assays:
Assay type in all cases: in vivo, rat
[1] = system: Wistar rats with CFA-induced arthritis; assay: Depressive behavior (forced swim test) in rats with CFA-induced hindpaw monoarthritis; settings: for depressive behavior (immobility time in FST; FIG. 6H): 100 mg/kg intraperitoneally once on day 14, same arthritic rats, P>0.05
IDO1/TPH2 = IDO1/TPH2 expression in the hippocampus of CFA rats (Example 11); settings: intraperitoneally once per day, day 1 to day 14 (1-MT 10 mg, fluoxetine 5 mg); tissue taken 7 days after discontinuation
Text: Rats were divided into five groups: 1) sham-operated rats treated with a vehicle (Sham), 2) CFA-induced hindpaw pain treated with vehicle (C-V). […] Each treatment was given intraperitoneally once per day from day 1 to day 14. Hippocampal tissue samples were taken after the last behavioral tests at 7 days after discontinuation of the corresponding drug treatment.

[2] = system: Wistar rats with CFA-induced arthritis; assay: Nociceptive tests (von Frey, Hargreaves) in rats with CFA-induced hindpaw monoarthritis; settings: for nociceptive behavior (mechanical allodynia, ipsilateral hindpaw; FIG. 5A): intraperitoneal, 10 mg/day, twice daily for 14 consecutive days after CFA
Experimental: Hindpaw monoarthritis was induced by the injection of CFA (50 μl) into a unilateral tibio-tarsal joint cavity under brief isoflurane anesthesis (Butler, S. H., et al, and Weil-Fugazza, J. 1992. A limited arthritic model for chronic pain studies in the rat. Pain 48:73-81). Animals in sham groups received the injection of 50 μl Incomplete Freund's Adjuvant.
(§1) Under brief isoflurane anesthesia, a guide cannula (26 gauge, Plasticsone) was implanted just above the hippocampus (AP: −3.6 mm; left: +2.0 mm from Bregma; depth: −4.0 mm from skin) (Paxinos, G., and Watson, C. 1998. The rat brain in stertaxic coordinates. New York: Academic Press). An injection needle (33 gauge, Plasticsone) was inserted through the guide cannula and drug solution or vehicle (0.5 μl) was slowly injected over 5 min using a Hamilton syringe. Locations of the cannula placement were confirmed at the time of tissue harvest (data not shown).
(§2) Animals were habituated to a test setting (30-min session) for three consecutive days. Thermal withdrawal threshold was assessed using the Hargreaves' apparatus and method (Hargreaves, K., et al., 1988. A new and sensitive method for measuring thermal nociception in cutaneous hyperalgesia. Pain 32:77-88). Mechanical withdrawal threshold was assessed using von Frey filaments (Tal, M., and Bennett, G. J. 1994. Extra-territorial pain in rats with a peripheral mononeuropathy: mechano-hyperalgesia and mechano-allodynia in the territory of an uninjured nerve. Pain 57:375-382).

IL-6 = assay: Plasma IL-6 level (ELISA) in rats with nociceptive and depressive behavior; settings: systemic treatment; rats with both nociceptive and depressive behavior; data not shown
Experimental: Under pentobarbital anesthesia, whole blood was collected from the left ventricle of the heart and placed in a serum collection tube (BD Vacutainer). Blood clots were formed after 30-60 min at room temperature and the tube was centrifuged for 10 min at 12,000 rpm. ELISA Quantikine kit (R&D Systems) and IDO ELISA kit (TSZ ELISA) was used according to the manufacturer's instructions. Optical density of samples was read at wavelengths of 450 & 570 nm using a microplate reader (Synergy HT, Bio-TEK®). A standard curve, provided by the manufacturer, was generated for each set of samples assayed and the concentration of each sample was obtained according to the standard curve.

IDO1 [3] = assay: Intra-hippocampal microinjection in naive rats: hippocampal IDO1 mRNA (real-time PCR); settings: intra-hippocampal microinjection alone, naive rats; P>0.05
Experimental: as §1
Total RNA was isolated from hippocampal samples using TRIzol reagent (Invitrogen). Four μg of total RNA was used to synthesize the first strand cDNA using SuperScript III kit (Invitrogen). Four μl of cDNA was put into 20 μl vessel with 1 μl of 20× TaqMan Gene Expression Assay. Taqman Gene Expression Assays (Applied Biosystems) containing primers and a Taqman probe were used to quantify each gene of interest. The genes examined were IL-6 (Rn01410330 m1, M26744.1) and IDO1 (Rn00576778 m1, AF312699.1) for rats and IL-6 (Mm00446190 m1, X54542.1) and IDO1 (Mm00492586 m1, M69109.1) for mice. […] The RNA expression of GAPDH was measured as control.

naive rats = assay: Intra-hippocampal microinjection in naive rats: nociceptive and depressive behavior
Experimental: as §1, §2
FST was performed according to the original method by Porsolt et al (Porsolt, R. D., Le, P. M., and Jalfre, M. 1977. Depression: a new animal model sensitive to antidepressant treatments. Nature 266:730-732). The total duration of immobility (non-swimming) within a 5-min session was recorded as immobility scores (in seconds) and compared among groups.

IDO1 [4] = assay: Hippocampal IDO1 expression (Western blot, real-time PCR) in rats with CFA-induced arthritis; settings: 100 mg/kg intraperitoneally once on day 14, same arthritic rats, P>0.05
Experimental: Rats were sacrificed under pentobarbital anesthesia.
Total RNA was isolated from hippocampal samples using TRIzol reagent (Invitrogen). Four μg of total RNA was used to synthesize the first strand cDNA using SuperScript III kit (Invitrogen). Four μl of cDNA was put into 20 μl vessel with 1 μl of 20× TaqMan Gene Expression Assay. Taqman Gene Expression Assays (Applied Biosystems) containing primers and a Taqman probe were used to quantify each gene of interest. […] The reaction was performed in duplicate with the following conditions: denaturing at 95° C. for 30 s, annealing at 60° C. for 2 min, extension at 68° C. for 2 min for 40 cycles using a 7300 Real-Time PCR System (Applied Biosystems). The RNA expression of GAPDH was measured as control.

[5] = 100 mg/kg intraperitoneally once on day 14, examined 1 hr after, arthritic rats, P<0.05 vs vehicle

Cn1cc(C[C@H](N)C(=O)O)c2ccccc21 [1-MT, L-1-methyl-tryptophan]
depressive behavior (immobility time in forced swimming test; FIG. 5D) ([1]; intra-hippocampal microinjection, 5 μg in 0.5 μl, once daily x 7 d, P<0.05): attenuated; also recorded: reduced the immobility time in forced swimming test
depressive behavior (immobility time in forced swimming test; FIG. 5B) ([1]; intraperitoneal, 10 mg/day, twice daily for 14 consecutive days after CFA, arthritic rats, P<0.05 vs vehicle): significantly attenuated; also recorded: improved the immobility time in forced swimming test
IDO up-regulation in the hippocampus (IDO1/TPH2): prevented the IDO up-regulation
nociceptive behavior (thermal hyperalgesia, ipsilateral hindpaw; FIG. 5C) ([2]; intra-hippocampal microinjection, 5 μg in 0.5 μl, once daily x 7 d, contralateral to arthritic hindpaw, P<0.05): attenuated thermal hyperalgesia
behaviors in sham control rats ([2]; intra-hippocampal microinjection): without changing behaviors in sham control rats
nociceptive behavior (mechanical allodynia, ipsilateral hindpaw; FIG. 5A) ([2]; arthritic rats, P<0.05 vs vehicle): significantly attenuated
nociceptive behavior (mechanical allodynia, ipsilateral hindpaw; FIG. 5A) ([2]; arthritic rats, P<0.05 vs vehicle, listed as L-1-MT): attenuated mechanical allodynia
behaviors in sham control rats ([2]; systemic (intraperitoneal) treatment alone): did not alter behaviors in sham controls rats
elevation of the plasma IL-6 level (IL-6): did not prevent elevation of the plasma IL-6 level

N#C/C(=C/c1ccc(O)c(O)c1)C(=O)NCc1ccccc1 [AG490]
IDO1 mRNA expression (IDO1 [3]): had no effect
IL-6 effects (mechanical allodynia, thermal hyperalgesia, depressive behavior, hippocampal IDO1 mRNA; FIG. 9E-H) (naive rats; 5 μg once daily x 7 d co-administered with IL-6 into the hippocampus of naive rats, each P<0.05): prevented; also recorded: blocked
baseline behavioral response (naive rats; intra-hippocampal microinjection alone, naive rats, P>0.05): had no effect

CNCCC(Oc1ccc(C(F)(F)F)cc1)c1ccccc1 (stereo not shown) [SSRI, fluoxetine]
IDO1/TPH2 ratio in the hippocampus (IDO1/TPH2): did not alter the IDO1/TPH2 ratio

CC(=O)Nc1ccc(O)cc1 [acetaminophen, N-acetyl-para-aminophen]
depressive behavior (immobility time in FST; FIG. 6H) [1]: did not acutely reverse depressive behavior
depressive behavior (immobility time in FST; FIG. 6H) ([1]; listed as APAP): did not change the immobility time in FST
hippocampal IDO1 mRNA level (FIG. 6I) (IDO1 [4]): nor did it alter the IDO1 mRNA level
hippocampal IDO1 mRNA level (FIG. 6I) (IDO1 [4]; listed as APAP): not reversed
mechanical allodynia (ipsilateral; FIG. 6F) [2, 5]: significantly reduced; also recorded: attenuated
thermal hyperalgesia (FIG. 6G) [2, 5]: significantly reduced; also recorded: attenuated
